Results on 26 compounds are retold here after patent US20100144708A1, “HETEROCYCLIC COMPOUNDS CONTAINING NITROGEN ATOMS OR PHARMACEUTICALLY ACCEPTABLE SALTS THEREOF, PROCESS FOR THE PREPARATION THEREOF AND PHARMACEUTICAL COMPOSITION COMPRISING THE SAME FOR TREATMENT OF CANCER” (Korea Research Instititute of Bioscience and Biotechnology, priority 2006, published 2010).

SMILES strings stand for the structures.

Format in all cases: cell-based, Human
In one assay the test system is PC-3 (prostate cancer). The assay is described as follows: Test for inhibition of tumor cell growth (SRB), PC-3. Particulars: 48 hours, SRB staining; for GI50: Homo sapiens, read-out: GI50 PC-3 (prostate ancer). The protocol:
(§1) Human tumor cell lines, PC-3 (prostate cancer, ATCC, USA), MBA-MB-231 (breast cancer, ATCC, USA), ACHN (kidney cancer, ATCC, USA), and NUGC-3 (gastric cancer, ATCC, USA) were cultured in RPMI 1640 media containing 10% fetal bovine serum (FBS).
(§2) In order to measure anticancer activity, a suitable concentration of cells in RPMI 1640 media containing 5% fetal bovine serum (about 5×10^4 cells/□) was aliquotted in 96-well plates, and cultured in 5% CO2 at 37° C. On day one after aliquoting the cells, before the cells were treated with the compounds, in order to determine their concentration, 50[…] of 50% trichloroacetic acid was added to each well of time zero (T0) plate, and cells were fixed to determine zero point. The cells treated with the compounds were fixed on each well having 50[…] of 50% trichloroacetic acid after 48 hours. The final concentrations of the test compounds were 0.01, 0.03, 0.1, 0.3, and 1[…]/□. The fixed plate was washed with water and dried, and then 100[…] of 0.4% sulphorhodamine B (SRB) dissolved in 0.1% acetic acid was added to the each well to stain the cells. The plate was allowed to stand for 30 minutes, and then washed with 0.1% acetic acid. Then, the plate was dried at room temperature, and treated with 10 mM tris base (pH 10.5) to dissolve staining reagent. An absorbance measured at 540 nm was calculated as a percentage of the control group, and then the concentration of the compound that inhibited tumor cell growth (GI50(□/□)) by 50% was determined.

The test system of assay [1] is MBA-MB-231 (breast cancer). The assay is described as follows: Test for inhibition of tumor cell growth (SRB), MBA-MB-231. Particulars: 48 hours, SRB staining; for GI50: Homo sapiens. Here is the method:
as §1, §2
(In SRB staining, fixed cells bind dye roughly in proportion to their protein.)

Another assay concerns ACHN (kidney cancer). Description: Test for inhibition of tumor cell growth (SRB), ACHN. Particulars: 48 hours, SRB staining; for GI50: Homo sapiens, ACHN. The protocol: as §1, §2
The test system of another assay is NUGC-3 (gastric cancer). Description: Test for inhibition of tumor cell growth (SRB), NUGC-3. Particulars: 48 hours, SRB staining; for GI50: Homo sapiens, NUGC-3. The protocol: as §1, §2

In the case of `CCCCCCCC(=O)N1CC[N+](C)(C)CC1.[I-]` [Example 2, 1,1-dimethyl-4-octanoyl-piperazin-1-ium iodide], the GI50 (in the assay with PC-3 (prostate cancer); in assay [1]; in the assay on ACHN (kidney cancer); with NUGC-3 (gastric cancer)) was greater than 10 µg/mL each time.
For `CCCCCCCCCCS(=O)(=O)N1CC[N+](C)(Cc2ccccc2)CC1` [Example 76, 1-benzyl-4-(decane-1-sulfonyl)-1-methyl-piperazin-1-ium bromide], the GI50 (as a rule, the concentration that inhibits growth by half) in the assay on PC-3 (prostate cancer) stood at 0.54 µg/mL; in assay [1] it was 4.02 µg/mL; in the assay with ACHN (kidney cancer), 3.5 µg/mL; in the assay on NUGC-3 (gastric cancer), 0.99 µg/mL.
With `CCCCCCCCCCCCCCCCCCCCCC(=O)N1CC[N+](C)(CC)CC1` [Example 34, 4-docosanoyl-1-ethyl-1-methylpiperazin-1-ium iodide], the concentration for 50% growth inhibition (GI50) came to 0.85 µg/mL in the assay on PC-3 (prostate cancer), 2.01 µg/mL in assay [1], 1.9 µg/mL with ACHN (kidney cancer) and 1.22 µg/mL in the assay with NUGC-3 (gastric cancer).
As to `CCCCCCCCCS(=O)(=O)N1CC[N+](C)(C)CC1` [Example 102, 1,1-dimethyl-4-(nonane-1-sulfonyl)piperazin-1-ium iodide], the GI50 (in the assay with PC-3 (prostate cancer); in assay [1]; in the assay on ACHN (kidney cancer); in the assay with NUGC-3 (gastric cancer)) was greater than 10 µg/mL in each case.
As to `C=CC[N+]1(C)CCN(S(=O)(=O)CCCCCCCCCCCC)CC1` [Example 82, 1-allyl-4-(dodecane-1-sulfonyl)-1-methyl-piperazin-1-ium bromide], the concentration for 50% growth inhibition (GI50) came to 0.71 µg/mL with PC-3 (prostate cancer), 1.4 µg/mL in assay [1], 0.86 µg/mL with ACHN (kidney cancer) and 0.75 µg/mL with NUGC-3 (gastric cancer).
In the case of `CCCCCCCCCCCC(=O)N1CC[N+](CC)(Cc2cccc(F)c2)CC1.[Br-]` [Example 54], in the assay on PC-3 (prostate cancer), the “GI50 PC-3 (prostate ancer)” value was determined as 0.53 µg/mL. Further, in assay [1], the “GI50 MBA-MB-231 (breast cancer)” value is 4.71 µg/mL. Besides, in the assay on ACHN (kidney cancer), the “GI50 ACHN (kidney cancer)” value was 3.78 µg/mL. For the same compound, the “GI50 NUGC-3 (gastric cancer)” value in the assay with NUGC-3 (gastric cancer) turned out to be 1.61 µg/mL.
As to `CCCCCCCCCCS(=O)(=O)N1CC[N+](C)(C)CC1` [Example 75, 4-(decane-1-sulfonyl)-1,1-dimethyl-piperazin-1-ium iodide], the GI50 in the assay with PC-3 (prostate cancer) was 1.84 µg/mL; in assay [1], greater than 10 µg/mL; in the assay on ACHN (kidney cancer), 4.45 µg/mL; in the assay with NUGC-3 (gastric cancer), 3.29 µg/mL.
Taken in the same sequence, the figures for `CCCCCCCCCS(=O)(=O)N1CC[N+](CC)(Cc2cccc([N+](=O)[O-])c2)CC1` [Example 89, 1-ethyl-1-(3-nitrobenzyl)-4-(nonylsulfonyl)piperazin-1-ium bromide] were 4.02 µg/mL, greater than 10 µg/mL, greater than 10 µg/mL and greater than 10 µg/mL.
`CCCCCCCCS(=O)(=O)N1CC[N+](C)(Cc2ccccc2)CC1` [Example 62, 1-benzyl-1-methyl-4-(octane-1-sulfonyl)piperazin-1-ium bromide]: the GI50 (in the assay with PC-3 (prostate cancer); in assay [1]; in the assay with ACHN (kidney cancer); in the assay with NUGC-3 (gastric cancer)) was greater than 10 µg/mL each time.
Regarding `CCCCCCCCCCCCCC(=O)N1CCC[N+](C)(Cc2ccc(F)cc2)CC1` (centres unmarked) [Example 133, 1-(4-fluorobenzyl)-1-methyl-4-tetradecanoyl-1,4-diazepan-1-ium bromide], the concentration for 50% growth inhibition (GI50) in the assay on PC-3 (prostate cancer) came to 0.45 µg/mL; in assay [1], 1.48 µg/mL; in the assay with ACHN (kidney cancer) it was 1.1 µg/mL; with NUGC-3 (gastric cancer), 0.94 µg/mL.
Consider `C=CC[N+]1(C)CCN(S(=O)(=O)CCCCCCCCCC)CC1` [Example 77, 1-allyl-4-(decane-1-sulfonyl)-1-methyl-piperazin-1-ium bromide], for which the concentration for 50% growth inhibition (GI50) in the assay with PC-3 (prostate cancer) was 0.83 µg/mL; in assay [1] it was greater than 10 µg/mL; in the assay on ACHN (kidney cancer), 3.47 µg/mL; with NUGC-3 (gastric cancer) it was 1.55 µg/mL.
`C=CC[N+]1(CC)CCN(C(=O)CCCCCCCCCCCCC)CC1` [Example 16, 1-allyl-1-ethyl-4-tetradecanoyl-piperazin-1-ium bromide]: the concentration for 50% growth inhibition (GI50) was determined as 0.41 µg/mL in the assay on PC-3 (prostate cancer), 2.49 µg/mL in assay [1], 4.26 µg/mL in the assay with ACHN (kidney cancer) and 0.76 µg/mL with NUGC-3 (gastric cancer).
Take `CCCCCCCCCCCCCCCCCCCCCCCC(=O)N1CC[N+](C)(CC)CC1` [Example 42, 1-ethyl-1-methyl-4-tetracosanoylpiperazin-1-ium iodide]: the concentration for 50% growth inhibition (GI50) in the assay with PC-3 (prostate cancer) was 3.77 µg/mL; in assay [1], greater than 10 µg/mL; in the assay with ACHN (kidney cancer), greater than 10 µg/mL; in the assay with NUGC-3 (gastric cancer), greater than 10 µg/mL.
On to `CCCCCCCCCCCCCCCCCCS(=O)(=O)N1CC[N+](CC)(Cc2ccccc2)CC1` [Example 73, 1-benzyl-1-ethyl-4-(octadecane-1-sulfonyl)piperazin-1-ium bromide], for which the concentration for 50% growth inhibition (GI50) was 0.8 µg/mL in the assay on PC-3 (prostate cancer), 1.75 µg/mL in assay [1], 1.87 µg/mL with ACHN (kidney cancer) and 0.85 µg/mL with NUGC-3 (gastric cancer).
On the same counts, the results for `CCCCCCCCCCCCCCCCCC(=O)N1CC[N+](C)(CC)CC1` [Example 27, 1-ethyl-1-methyl-4-octadecanoyl-piperazin-1-ium iodide] are 0.41 µg/mL, 1.43 µg/mL, 1.36 µg/mL and 0.67 µg/mL.
On the same counts, the results for `C=CCCCCCCCCC(=O)N1CC[N+](C)(C)CC1` [Example 45, 1,1-dimethyl-4-undec-10-enoyl-piperazin-1-ium iodide] are 2.02 µg/mL, greater than 10 µg/mL, greater than 10 µg/mL and greater than 10 µg/mL.
On to `CCCCCCCCCCS(=O)(=O)N1CC[N+](CC)(Cc2cccc([N+](=O)[O-])c2)CC1` [Example 91, 4-(decane-1-sulfonyl)-1-ethyl-1-(3-nitrobenzyl)piperazin-1-ium bromide], for which the concentration for 50% growth inhibition (GI50) is 0.83 µg/mL in the assay with PC-3 (prostate cancer), greater than 10 µg/mL in assay [1], 4.82 µg/mL in the assay on ACHN (kidney cancer) and 1.54 µg/mL in the assay on NUGC-3 (gastric cancer).
As for `CCCCCCCCCCS(=O)(=O)N1CC[N+](C)(CC)CC1` [Example 78, 4-(decane-1-sulfonyl)-1-ethyl-1-methyl-piperazin-1-ium iodide], the GI50 is 1.06 µg/mL with PC-3 (prostate cancer), greater than 10 µg/mL in assay [1], 4.15 µg/mL with ACHN (kidney cancer) and 1.81 µg/mL in the assay with NUGC-3 (gastric cancer).
Take `CCCCCCCCCCCCCCS(=O)(=O)N1CC[N+](CC)(Cc2ccc(F)cc2)CC1` [Example 68, 1-ethyl-1-(4-fluorobenzyl)-4-(tetradecane-1-sulfonyl)piperazin-1-ium bromide]: the 50% growth inhibitory concentration (GI50) in the assay with PC-3 (prostate cancer) came to 0.71 µg/mL; in assay [1], 1.59 µg/mL; in the assay on ACHN (kidney cancer), 1.19 µg/mL; with NUGC-3 (gastric cancer), 1.05 µg/mL.
`CCCCCCCCCCCCCCCCCCCC(=O)N1CC[N+](C)(Cc2ccccc2)CC1` [Example 32, 1-benzyl-4-icosanoyl-1-methylpiperazin-1-ium bromide]: the 50% growth inhibitory concentration (GI50) in the assay with PC-3 (prostate cancer) came to 0.59 µg/mL; in assay [1], 1.66 µg/mL; in the assay on ACHN (kidney cancer) it was 1.89 µg/mL; in the assay with NUGC-3 (gastric cancer), 1.1 µg/mL.
Turning to `CCCCCCCCCS(=O)(=O)N1CC[N+](C)(Cc2ccccc2)CC1` [Example 103, 1-benzyl-1-methyl-4-(nonane-1-sulfonyl)piperazin-1-ium bromide], the GI50 in the assay on PC-3 (prostate cancer) was 1.25 µg/mL; in assay [1], greater than 10 µg/mL; with ACHN (kidney cancer), greater than 10 µg/mL; in the assay on NUGC-3 (gastric cancer) it was 3.45 µg/mL.
Consider `CCCCCCCCCCCCCCCC(=O)N1CC[N+](CC)(Cc2cccc([N+](=O)[O-])c2)CC1` [Example 47, 1-ethyl-1-(3-nitrobenzyl)-4-palmitoylpiperazin-1-ium bromide], for which the 50% growth inhibitory concentration (GI50) with PC-3 (prostate cancer) is 4.57 µg/mL; in assay [1], greater than 10 µg/mL; in the assay with ACHN (kidney cancer), 5.13 µg/mL; with NUGC-3 (gastric cancer) it was 3.64 µg/mL.
For the compound `CCCCCCCCCCCCCCCC(=O)N1CC[N+](C)(CC)CC1.[I-]` [Example 23, 1-ethyl-4-hexadecanoyl-1-methyl-piperazin-1-ium iodide], the concentration for 50% growth inhibition (GI50) came out at 0.8 µg/mL in the assay with PC-3 (prostate cancer), 2.05 µg/mL in assay [1], 1.89 µg/mL with ACHN (kidney cancer) and 0.58 µg/mL in the assay on NUGC-3 (gastric cancer).
In the case of `C=CC[N+]1(CC)CCN(C(=O)CCCCCCCCC)CC1` [Example 11, 1-allyl-4-decanoyl-1-ethylpiperazin-1-ium bromide], the GI50 was 3.07 µg/mL with PC-3 (prostate cancer), greater than 10 µg/mL in assay [1], greater than 10 µg/mL in the assay on ACHN (kidney cancer) and greater than 10 µg/mL with NUGC-3 (gastric cancer).
As for `CCCCCCCCCS(=O)(=O)N1CC[N+](C)(Cc2ccc(F)cc2)CC1` [Example 104, 1-(4-fluorobenzyl)-1-methyl-4-(nonane-1-sulfonyl)piperazin-1-ium bromide], the GI50 was 3.45 µg/mL in the assay on PC-3 (prostate cancer), greater than 10 µg/mL in assay [1], greater than 10 µg/mL with ACHN (kidney cancer) and greater than 10 µg/mL in the assay with NUGC-3 (gastric cancer).
For `C=CC[N+]1(CC)CCN(C(=O)CCCCCCCCCCCCCCC)CC1.[Br-]` [Example 22, 1-allyl-1-ethyl-4-hexadecanoyl-piperazin-1-ium bromide], the GI50 came out at 0.37 µg/mL in the assay with PC-3 (prostate cancer), 0.68 µg/mL in assay [1], 0.5 µg/mL in the assay on ACHN (kidney cancer) and 0.27 µg/mL with NUGC-3 (gastric cancer).
